Data reported in patent publication US20070093392A1 (priority 2005, published 2007).

System: gerbils
Settings: in vivo

COc1cc(CNC(=O)CCCC/C=C/C(C)C)ccc1O [capsaicin]
Rodent repellent effect, overall: very effective rodent repellent
